{"source": "paper PMC7142328", "about": "(Journal of natural products, 2018)", "key": {"rat α4β2 nAChR [1]": {"target": "T1, rat α4β2 nAChR (Rattus norvegicus, UniProt P09483+P12390)", "T1 sequence (P09483 31-630)": "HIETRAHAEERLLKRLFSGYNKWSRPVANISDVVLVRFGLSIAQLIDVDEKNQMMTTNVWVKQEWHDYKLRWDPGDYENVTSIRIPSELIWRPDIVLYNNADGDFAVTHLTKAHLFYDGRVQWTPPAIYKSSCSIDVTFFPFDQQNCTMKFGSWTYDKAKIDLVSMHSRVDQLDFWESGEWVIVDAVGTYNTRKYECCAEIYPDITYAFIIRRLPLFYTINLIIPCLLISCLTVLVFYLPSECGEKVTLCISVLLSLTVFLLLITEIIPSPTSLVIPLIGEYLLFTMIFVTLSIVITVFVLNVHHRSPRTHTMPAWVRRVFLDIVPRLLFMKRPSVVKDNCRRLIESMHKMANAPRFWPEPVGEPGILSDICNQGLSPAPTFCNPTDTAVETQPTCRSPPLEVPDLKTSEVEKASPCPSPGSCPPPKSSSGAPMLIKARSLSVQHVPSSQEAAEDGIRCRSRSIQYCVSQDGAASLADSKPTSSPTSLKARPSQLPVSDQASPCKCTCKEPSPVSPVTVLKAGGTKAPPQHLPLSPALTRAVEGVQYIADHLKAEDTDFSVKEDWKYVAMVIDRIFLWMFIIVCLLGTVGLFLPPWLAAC", "T1 sequence (P12390 25-500)": "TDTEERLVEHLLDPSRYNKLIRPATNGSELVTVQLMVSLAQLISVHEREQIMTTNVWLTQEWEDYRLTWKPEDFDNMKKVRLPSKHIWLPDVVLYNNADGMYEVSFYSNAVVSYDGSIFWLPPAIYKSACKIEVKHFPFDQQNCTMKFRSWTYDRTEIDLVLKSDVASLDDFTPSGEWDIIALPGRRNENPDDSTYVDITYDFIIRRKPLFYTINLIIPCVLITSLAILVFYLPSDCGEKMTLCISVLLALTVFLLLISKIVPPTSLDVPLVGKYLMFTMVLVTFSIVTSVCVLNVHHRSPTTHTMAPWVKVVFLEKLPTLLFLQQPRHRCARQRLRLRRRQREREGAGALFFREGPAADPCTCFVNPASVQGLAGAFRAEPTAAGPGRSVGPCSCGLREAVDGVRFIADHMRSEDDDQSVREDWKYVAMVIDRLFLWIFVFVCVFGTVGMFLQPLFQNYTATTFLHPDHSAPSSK", "assay_type": "cell-based"}, "rat α3β4 nAChR [2]": {"target": "T2, rat α3β4 nAChR (Rattus norvegicus, UniProt P04757+P12392)", "T2 sequence (P12392 21-495)": "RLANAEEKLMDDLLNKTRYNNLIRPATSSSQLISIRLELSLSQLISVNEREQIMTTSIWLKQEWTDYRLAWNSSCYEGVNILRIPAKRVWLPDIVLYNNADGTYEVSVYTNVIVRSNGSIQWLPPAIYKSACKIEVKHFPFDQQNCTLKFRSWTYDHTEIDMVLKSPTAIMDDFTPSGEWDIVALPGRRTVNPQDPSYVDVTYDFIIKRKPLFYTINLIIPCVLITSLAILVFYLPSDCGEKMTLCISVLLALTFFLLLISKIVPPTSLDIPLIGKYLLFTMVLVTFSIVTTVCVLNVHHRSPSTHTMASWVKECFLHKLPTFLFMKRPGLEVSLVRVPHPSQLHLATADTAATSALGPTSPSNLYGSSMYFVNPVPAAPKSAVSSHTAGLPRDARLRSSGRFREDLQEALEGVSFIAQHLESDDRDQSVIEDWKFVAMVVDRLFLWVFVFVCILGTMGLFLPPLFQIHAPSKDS", "T2 sequence (P04757 26-499)": "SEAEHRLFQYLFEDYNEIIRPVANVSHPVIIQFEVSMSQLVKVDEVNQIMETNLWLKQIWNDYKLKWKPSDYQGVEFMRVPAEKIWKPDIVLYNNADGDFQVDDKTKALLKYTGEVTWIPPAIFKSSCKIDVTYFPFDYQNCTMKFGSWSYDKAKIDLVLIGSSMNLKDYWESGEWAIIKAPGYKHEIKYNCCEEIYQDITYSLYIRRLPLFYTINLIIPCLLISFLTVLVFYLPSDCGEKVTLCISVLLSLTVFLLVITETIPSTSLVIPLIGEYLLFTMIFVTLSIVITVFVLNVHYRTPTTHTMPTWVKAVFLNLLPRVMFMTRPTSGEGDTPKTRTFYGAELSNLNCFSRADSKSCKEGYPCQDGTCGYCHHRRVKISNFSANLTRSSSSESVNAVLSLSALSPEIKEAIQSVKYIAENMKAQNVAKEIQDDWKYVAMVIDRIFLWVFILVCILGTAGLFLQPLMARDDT", "assay_type": "binding"}, "rat α3β2 nAChR": {"target": "rat α3β2 nAChR (Rattus norvegicus, UniProt P04757+P12390)", "sequence (P04757 26-499)": "as above", "sequence (P12390 25-500)": "as the sequence (P12390 25-500) above", "test": "Two-electrode voltage clamp electrophysiology in Xenopus oocytes, α3β2", "assay_type": "cell-based"}, "rat α4β2 nAChR [3]": {"target": "T1, rat α4β2 nAChR", "assay_type": "binding"}, "Human α4β2 nAChR": {"target": "Human α4β2 nAChR (Homo sapiens, UniProt P17787+P43681)", "sequence (P43681 29-627 limits assumed)": "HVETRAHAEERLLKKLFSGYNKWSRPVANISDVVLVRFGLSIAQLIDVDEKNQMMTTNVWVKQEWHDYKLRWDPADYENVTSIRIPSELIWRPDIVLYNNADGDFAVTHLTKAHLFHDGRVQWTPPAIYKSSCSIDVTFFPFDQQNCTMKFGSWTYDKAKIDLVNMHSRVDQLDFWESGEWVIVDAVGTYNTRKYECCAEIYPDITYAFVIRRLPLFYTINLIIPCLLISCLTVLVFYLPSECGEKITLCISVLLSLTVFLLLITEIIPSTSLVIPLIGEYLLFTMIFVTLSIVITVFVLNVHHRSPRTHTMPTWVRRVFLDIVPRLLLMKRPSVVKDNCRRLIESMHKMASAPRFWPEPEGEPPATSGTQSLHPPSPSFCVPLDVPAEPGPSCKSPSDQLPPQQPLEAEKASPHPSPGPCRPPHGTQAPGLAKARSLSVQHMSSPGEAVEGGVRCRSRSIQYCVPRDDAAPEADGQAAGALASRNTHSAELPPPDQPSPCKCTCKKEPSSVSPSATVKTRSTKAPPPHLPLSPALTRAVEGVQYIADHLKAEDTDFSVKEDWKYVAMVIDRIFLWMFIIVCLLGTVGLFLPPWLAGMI", "sequence (P17787 26-502)": "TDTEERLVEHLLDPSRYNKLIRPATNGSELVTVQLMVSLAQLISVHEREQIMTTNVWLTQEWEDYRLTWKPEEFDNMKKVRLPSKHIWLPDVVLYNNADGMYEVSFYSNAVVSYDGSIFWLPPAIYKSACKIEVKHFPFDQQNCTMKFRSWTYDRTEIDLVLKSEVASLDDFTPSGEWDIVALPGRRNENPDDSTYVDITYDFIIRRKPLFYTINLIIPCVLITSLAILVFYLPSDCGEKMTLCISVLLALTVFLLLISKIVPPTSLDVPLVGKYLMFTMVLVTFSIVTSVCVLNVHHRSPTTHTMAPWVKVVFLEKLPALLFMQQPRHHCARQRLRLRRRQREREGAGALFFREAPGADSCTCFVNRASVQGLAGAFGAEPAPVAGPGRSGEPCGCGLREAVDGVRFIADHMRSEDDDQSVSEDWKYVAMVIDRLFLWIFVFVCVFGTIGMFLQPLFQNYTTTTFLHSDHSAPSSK", "assay_type": "cell-based", "conditions": "for agonist character, α4β2: relative to nicotine"}, "5-HT3A receptor": {"target": "T3, 5-HT3A receptor (Rattus norvegicus, UniProt P35563)", "T3 sequence (P35563 24-483)": "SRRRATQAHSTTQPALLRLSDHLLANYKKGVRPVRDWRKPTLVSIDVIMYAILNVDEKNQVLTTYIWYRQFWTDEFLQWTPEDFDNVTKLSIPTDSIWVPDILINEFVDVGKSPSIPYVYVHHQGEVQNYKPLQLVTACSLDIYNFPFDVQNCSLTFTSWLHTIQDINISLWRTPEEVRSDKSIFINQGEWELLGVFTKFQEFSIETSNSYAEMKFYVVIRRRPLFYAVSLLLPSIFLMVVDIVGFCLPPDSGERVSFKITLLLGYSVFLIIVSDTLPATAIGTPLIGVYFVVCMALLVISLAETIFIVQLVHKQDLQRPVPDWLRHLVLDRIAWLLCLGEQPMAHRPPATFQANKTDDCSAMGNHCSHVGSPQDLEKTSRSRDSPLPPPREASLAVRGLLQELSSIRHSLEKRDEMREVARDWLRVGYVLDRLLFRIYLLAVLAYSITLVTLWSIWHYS", "test": "Two-electrode voltage clamp electrophysiology in Xenopus oocytes, 5-HT3A", "assay_type": "cell-based"}, "rat α3β4 nAChR [4]": {"target": "T2, rat α3β4 nAChR", "test": "cell-based", "assay_type": "cell-based"}, "[5]": {"target": "native nAChR in rat forebrain (Rattus norvegicus, UniProt P09483+P12390)", "sequence (P12390 25-500)": "as the sequence (P12390 25-500) above", "sequence (P09483 31-630)": "as the sequence (P09483 31-630) above", "assay_type": "binding"}, "rat α7 nAChR [6]": {"target": "T4, rat α7 nAChR (Rattus norvegicus, UniProt Q05941)", "T4 sequence (Q05941 23-502)": "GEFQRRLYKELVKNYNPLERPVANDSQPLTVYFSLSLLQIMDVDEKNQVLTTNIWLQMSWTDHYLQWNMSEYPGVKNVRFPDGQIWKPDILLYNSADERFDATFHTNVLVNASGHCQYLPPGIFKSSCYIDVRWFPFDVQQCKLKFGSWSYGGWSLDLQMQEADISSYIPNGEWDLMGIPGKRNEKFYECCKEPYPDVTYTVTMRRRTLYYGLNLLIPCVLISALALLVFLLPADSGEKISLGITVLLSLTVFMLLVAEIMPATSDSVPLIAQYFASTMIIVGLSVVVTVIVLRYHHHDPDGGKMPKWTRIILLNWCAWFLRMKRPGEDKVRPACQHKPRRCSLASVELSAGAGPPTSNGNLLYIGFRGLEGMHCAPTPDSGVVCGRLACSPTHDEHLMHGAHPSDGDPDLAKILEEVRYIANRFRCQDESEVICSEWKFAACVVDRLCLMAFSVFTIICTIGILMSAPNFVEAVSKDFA", "assay_type": "cell-based"}, "In-vivo toxicity": {"test": "In-vivo toxicity", "conditions": "male, Swiss-Webster, mouse, in vivo, iv"}, "Swiss-Webster mice [7]": {"test_system": "Swiss-Webster mice", "conditions": "cited from earlier work"}, "rat α7 nAChR [8]": {"target": "T4, rat α7 nAChR", "assay_type": "binding"}, "Swiss-Webster mice [9]": {"test_system": "Swiss-Webster mice", "test": "In-vivo toxicity", "conditions": "mice; for signs of toxicity: intravenous"}, "nAChR": {"test_system": "nAChR", "test": "Overall nAChR pharmacology, summary statements", "conditions": "most receptors tested"}}, "data": [{"molecule": "Clc1ccc2c(n1)OC13CCC1NCC23", "note": "(racemic) [(±)-1, phantasmidine]", "values": [{"measurement": "Hillslope α4β2", "setting": "rat α4β2 nAChR [1]", "value": 1.6}, {"measurement": "agonist character, α4β2", "setting": "rat α4β2 nAChR [1]; vs acetylcholine, oocytes", "value": "partial agonist"}, {"measurement": "lower binding affinity than epibatidine (2a), α3β4", "setting": "rat α3β4 nAChR [2]", "value": 50, "unit": "fold"}, {"measurement": "Hillslope α3β2", "setting": "rat α3β2 nAChR", "value": 1.57}, {"measurement": "agonist character, α3β2", "setting": "rat α3β2 nAChR; vs acetylcholine, oocytes", "value": "partial agonist"}, {"measurement": "lower binding affinity than epibatidine (2a), α4β2", "setting": "rat α4β2 nAChR [3]", "value": 10, "unit": "fold"}, {"measurement": "higher affinity for α4β2 over α3β4 receptors", "setting": "rat α4β2 nAChR [3]; binding", "value": "at least 30 fold"}, {"measurement": "Eudismic Ratio, 86Rb efflux α4β2", "setting": "Human α4β2 nAChR", "value": 280}, {"measurement": "difference in functional potency vs 2a, α4β2", "setting": "Human α4β2 nAChR; 86Rb efflux", "value": 8, "unit": "fold"}, {"measurement": "agonist character, α4β2", "setting": "Human α4β2 nAChR; 86Rb efflux", "value": "very potent partial agonist"}, {"measurement": "Hillslope 5HT3A", "setting": "5-HT3A receptor", "value": 1.7}, {"measurement": "agonist character, 5-HT3A", "setting": "5-HT3A receptor; vs meta-chlorophenylbiguanide (mCPBG), oocytes", "value": "partial agonist"}, {"measurement": "Eudismic Ratio, 86Rb efflux α3β4", "setting": "rat α3β4 nAChR [4]", "value": 47}, {"measurement": "difference in functional potency vs 2a, α3β4", "setting": "rat α3β4 nAChR [4]; 86Rb efflux", "value": 18, "unit": "fold"}, {"measurement": "agonist character, α3β4", "setting": "rat α3β4 nAChR [4]; 86Rb efflux, relative to nicotine", "value": "near-full agonist"}, {"measurement": "lower binding affinity than epibatidine (2a), native receptors in rat forebrain", "setting": "[5]", "value": 25, "unit": "fold"}, {"measurement": "Hillslope α7", "setting": "rat α7 nAChR [6]", "value": 1.8}, {"measurement": "agonist character, α7", "setting": "rat α7 nAChR [6]; vs acetylcholine, oocytes", "value": "full agonist"}, {"measurement": "LD50", "setting": "In-vivo toxicity", "value": "0.27 ± 0.19", "unit": "mg/kg"}]}, {"molecule": "Clc1ccc(C2CC3CCC2N3)cn1", "note": "(racemic) [(±)-2, epibatidine, reference compound]", "values": [{"measurement": "LD50", "setting": "In-vivo toxicity", "value": "0.0015 ± 0.0003", "unit": "mg/kg"}]}, {"molecule": "CN1CCC[C@H]1c1cccnc1", "note": "[2S-(−)-Nicotine, reference compound]", "values": [{"measurement": "Emax", "setting": "rat α3β4 nAChR [4]; read-out: Emax Rat α3β4", "value": "107 ± 3", "unit": "%"}, {"measurement": "LD50 in mouse", "setting": "Swiss-Webster mice [7]", "value": 0.3, "unit": "mg/kg"}]}, {"molecule": "Clc1ccc2c(n1)O[C@]13CC[C@H]1NC[C@H]23", "note": "[(2aR,4aS,9aS)-1, phantasmidine]", "values": [{"measurement": "Hillslope α4β2", "setting": "rat α4β2 nAChR [1]", "value": 1.8}, {"measurement": "affinity less than 2a, α7", "setting": "rat α7 nAChR [8]", "value": 2, "unit": "fold"}, {"measurement": "higher affinity than the distomer ent-1", "setting": "rat α4β2 nAChR [3]; across the subtypes and forebrain of Table 1", "value": "30-44 fold"}, {"measurement": "Eudismic Ratio, electrophysiology α7", "setting": "rat α7 nAChR [6]", "value": 5}, {"measurement": "Hillslope α7", "setting": "rat α7 nAChR [6]", "value": 1.5}, {"measurement": "LD50", "setting": "In-vivo toxicity", "value": "0.072 ± 0.014", "unit": "mg/kg"}, {"measurement": "less toxic than racemic 2a", "setting": "Swiss-Webster mice [9]; LD50 comparison", "value": 48, "unit": "fold"}, {"measurement": "signs of toxicity", "setting": "Swiss-Webster mice [9]; dose of 40 μg/kg", "value": "piloerection, slight elevated respiration and complete recovery in less than 1 min"}, {"measurement": "signs of toxicity", "setting": "Swiss-Webster mice [9]; dose of 50 μg/kg", "value": "piloerection, elevated respiration, hyperactivity (running) progressing to tonic clonic seizures and death in less than 30 sec"}, {"measurement": "eudismic ratio of toxicity", "setting": "Swiss-Webster mice [9]", "value": "around 100"}, {"measurement": "less potent than epibatidine", "setting": "nAChR", "value": "~ 10 fold"}, {"measurement": "more potent than nicotine", "setting": "nAChR", "value": "~ 100 fold"}]}, {"molecule": "Clc1ccc2c(n1)O[C@@]13CC[C@@H]1NC[C@@H]23", "note": "[(2aS,4aR,9aR)-ent-1]", "values": [{"measurement": "Hillslope α4β2", "setting": "rat α4β2 nAChR [1]", "value": 1.7}, {"measurement": "agonist character, α4β2", "setting": "Human α4β2 nAChR; 86Rb efflux", "value": "full agonist"}, {"measurement": "Hillslope α7", "setting": "rat α7 nAChR [6]", "value": 1.3}]}, {"molecule": "CC(=O)OCC[N+](C)(C)C", "note": "[Acetylcholine, reference compound]", "values": [{"measurement": "Hillslope α4β2", "setting": "rat α4β2 nAChR [1]", "value": "24 ± 6 (1.0 ± 0.1) 1.0"}, {"measurement": "Imax α4β2", "setting": "rat α4β2 nAChR [1]", "value": "24 ± 6 (1.0 ± 0.1) 1.0"}, {"measurement": "Hillslope α7", "setting": "rat α7 nAChR [6]", "value": 1.5}, {"measurement": "Imax α7", "setting": "rat α7 nAChR [6]; normalized to 1 mm acetylcholine", "value": "1.0 ± 0.1"}]}, {"molecule": "CO[C@H]1CC=C2CCN3CCC4=C(CC(=O)OC4)[C@]23C1", "note": "[DHβE, dihydro-β-erythroidine, reference compound]", "values": [{"measurement": "block of currents induced by 10 nM (±)-1", "setting": "rat α4β2 nAChR [1]; 2 min pre-application of 10 nM DHβE, n=4, α3β2 and α4β2 currents", "value": "completely blocked"}]}, {"molecule": "CN1[C@@H]2CC[C@H]1C[C@@H](OC(=O)c1c[nH]c3ccccc13)C2", "note": "[tropisetron, reference compound]", "values": [{"measurement": "block of currents induced by 100 μM (±)-1", "setting": "5-HT3A receptor", "value": "completely blocks"}]}]}
